Reference: patent US20250090626A1, “NEW PEPTIDE AND USES THEREOF” (Neo Cremar Co., Ltd., priority 2021, published 2025)
No end group written: not given here.

System: C2C12 cells
Test: Protein expression of myodifferentiation and sarcopenia factors (Western blot, immunocytochemistry)
Assay type: cell-based, mouse
Settings: C2C12 myodifferentiation, peptide-treated vs untreated
Description: The medium of cultured C2C12 cells was removed and washed once with PBS. The washed cells were treated with 4% formaldehyde (Sigma), fixed for 15 minutes, then washed using PBS, added with 0.2% trypton X-100 (Sigma), and left for 5 minutes. After washing again using PBS, adding 1% normal goat serum, and leaving for 30 minutes, the primary antibody (MYOD, myogenin (MYOG):myosin light chain (MYL2); 1:50) was added to carry out a reaction at 4° C. for 14 hours. The antibodies were removed, washing was performed 3 times with PBS for 10 minutes, and then the cells were left with secondary antibody (Alexa Fluor 488 goat anti-Mouse & rabbit SFX kit t) for 1 hour. After 1 hour, the antibodies were removed, washing was performed with PBS for 10 minutes, the nuclei were stained with 4′,6-diamidino-2-phenylindol (DAPI), and the expression of the proteins was observed using fluorescence microscopy.
(1) The medium of cultured C2C12 cells was removed, followed by washing with PBS. After adding LIPA buffer and protease inhibitor to the washed cells, the proteins included in the supernatant were collected after centrifugation for 10 minutes at 12000 rpm. 40 μg of the extracted proteins were subjected to electrophoresis in 8 to 10% acrylamide gel and then transferred to a polyvinylidene fluoride (PVDF) membrane (Milipore). These were blocked with 3% skim milk or bovine serum albumin (BSA) at room temperature for 1 hour. Afterwards, primary antibody diluted in 1% skim milk or BSA (Pax7; 1:500, MYOD; 1:500, MYOG; 1:400, MYL2; 1:1000, MYH; 1:500, MSTN; 1:1000, β-actin; 1:1000, MuRF1; 1:400, and Atrogin; 1:1:400) was added and reacted at 4° C. for over 16 hours. After 16 hours, cells were washed three times with TBST (Tris-buffered saline with Tween 20) and reacted with secondary antibody with horseradish peroxidase (HRP) conjugated at room temperature for 1 hour. It was washed three times with TBST and developed after adding Super Signal West Pico Chemiluminescent Substrate.

Ac-VDFEAFWDWG [Ac-MIF1, MIF1 with N-terminus acetylated, 10 mer]
ACVRIIB protein expression: reduced | Atrogin1 protein expression: reduced | MSTN protein expression: reduced | MYH protein expression: increased | MYOD protein expression: increased | MYOG protein expression: increased
